Source: PubChem BioAssay (NCI)
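Assay format: 96-well plates, 48-hour exposure. Abbreviation: GI50, concentration required for 50% inhibition of growth. TGI denotes the concentration required for complete inhibition of growth.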

Key:
Assay in all cases: NCI-60 cell line screen, 48 h
786-0 renal = system: 786-0 renal
A498 renal = system: A498 renal
A549 NSCLC = system: A549 NSCLC
ACHN renal = system: ACHN renal
BT-549 breast = system: BT-549 breast
CAKI-1 renal = system: CAKI-1 renal
CCRF-CEM leukemia = system: CCRF-CEM leukemia
COLO 205 colon = system: COLO 205 colon
DU-145 prostate = system: DU-145 prostate
EKVX NSCLC = system: EKVX NSCLC
HCC-2998 colon = system: HCC-2998 colon
HCT-116 colon = system: HCT-116 colon
HCT-15 colon = system: HCT-15 colon
HL-60(TB) leukemia = system: HL-60(TB) leukemia
HOP-62 NSCLC = system: HOP-62 NSCLC
HOP-92 NSCLC = system: HOP-92 NSCLC
HS 578T breast = system: HS 578T breast
HT29 colon = system: HT29 colon
IGROV1 ovarian = system: IGROV1 ovarian
K-562 leukemia = system: K-562 leukemia
KM12 colon = system: KM12 colon
LOX IMVI melanoma = system: LOX IMVI melanoma
M14 melanoma = system: M14 melanoma
MALME-3M melanoma = system: MALME-3M melanoma
MCF7 breast = system: MCF7 breast
MDA-MB-231 breast = system: MDA-MB-231 breast
MDA-MB-435 = system: MDA-MB-435
MOLT-4 leukemia = system: MOLT-4 leukemia
NCI-H226 lung = system: NCI-H226 lung
NCI-H23 lung = system: NCI-H23 lung
NCI-H460 lung = system: NCI-H460 lung
NCI-H522 lung = system: NCI-H522 lung
NCI/ADR-RES ovarian = system: NCI/ADR-RES ovarian
OVCAR-3 ovarian = system: OVCAR-3 ovarian
OVCAR-5 ovarian = system: OVCAR-5 ovarian
OVCAR-8 ovarian = system: OVCAR-8 ovarian
PC-3 prostate = system: PC-3 prostate
RPMI-8226 leukemia = system: RPMI-8226 leukemia
RXF 393 renal = system: RXF 393 renal
SF-268 CNS = system: SF-268 CNS
SF-295 CNS = system: SF-295 CNS
SF-539 CNS = system: SF-539 CNS
SK-MEL-2 melanoma = system: SK-MEL-2 melanoma
SK-MEL-28 melanoma = system: SK-MEL-28 melanoma
SK-MEL-5 melanoma = system: SK-MEL-5 melanoma
SK-OV-3 ovarian = system: SK-OV-3 ovarian
SN12C renal = system: SN12C renal
SNB-19 CNS = system: SNB-19 CNS
SNB-75 CNS = system: SNB-75 CNS
SR leukemia = system: SR leukemia
SW-620 colon = system: SW-620 colon
T-47D breast = system: T-47D breast
TK-10 renal = system: TK-10 renal
U251 CNS = system: U251 CNS
UACC-257 melanoma = system: UACC-257 melanoma
UACC-62 melanoma = system: UACC-62 melanoma
UO-31 renal = system: UO-31 renal

Compound: CC(C)(C)c1ccc(CC(=O)Nc2sc3c(c2C(N)=O)CCC(=O)C3)cc1
- GI50 (786-0 renal): 1.39 µM
- TGI (786-0 renal): 11.8 µM
- GI50 (A498 renal): 2.05 µM
- TGI (A498 renal): 6.97 µM
- GI50 (A549 NSCLC): 1.99 µM
- TGI (A549 NSCLC): 6.92 µM
- GI50 (ACHN renal): 0.374 µM
- TGI (ACHN renal): 1.31 µM
- GI50 (BT-549 breast): 0.48 µM
- TGI (BT-549 breast): 2.4 µM
- GI50 (CAKI-1 renal): 0.395 µM
- TGI (CAKI-1 renal): 3.01 µM
- GI50 (CCRF-CEM leukemia): 0.137 µM
- TGI (CCRF-CEM leukemia): 3.62 µM
- GI50 (COLO 205 colon): 1.33 µM
- TGI (COLO 205 colon): 3.02 µM
- GI50 (DU-145 prostate): 3.17 µM
- TGI (DU-145 prostate): 14 µM
- GI50 (EKVX NSCLC): 0.549 µM
- TGI (EKVX NSCLC): 3.54 µM
- GI50 (HCC-2998 colon): 1.49 µM
- TGI (HCC-2998 colon): 3.88 µM
- GI50 (HCT-116 colon): 0.26 µM
- TGI (HCT-116 colon): 1.29 µM
- GI50 (HCT-15 colon): 0.295 µM
- TGI (HCT-15 colon): 2.11 µM
- GI50 (HL-60(TB) leukemia): 0.423 µM
- TGI (HL-60(TB) leukemia): 3.11 µM
- GI50 (HOP-62 NSCLC): 2.69 µM
- TGI (HOP-62 NSCLC): 13.2 µM
- GI50 (HOP-92 NSCLC): 0.464 µM
- TGI (HOP-92 NSCLC): 1.85 µM
- GI50 (HS 578T breast): 1.98 µM
- TGI (HS 578T breast): 10.9 µM
- GI50 (HT29 colon): 0.871 µM
- TGI (HT29 colon): 8.43 µM
- GI50 (IGROV1 ovarian): 0.532 µM
- TGI (IGROV1 ovarian): 3.1 µM
- GI50 (K-562 leukemia): 0.233 µM
- TGI (K-562 leukemia): 4.94 µM
- GI50 (KM12 colon): 0.88 µM
- TGI (KM12 colon): 3.16 µM
- GI50 (LOX IMVI melanoma): 0.46 µM
- TGI (LOX IMVI melanoma): 3.41 µM
- GI50 (M14 melanoma): 0.435 µM
- TGI (M14 melanoma): 2.69 µM
- GI50 (MALME-3M melanoma): 0.692 µM
- TGI (MALME-3M melanoma): 2.35 µM
- GI50 (MCF7 breast): 0.433 µM
- TGI (MCF7 breast): 6.66 µM
- GI50 (MDA-MB-231 breast): 1.17 µM
- TGI (MDA-MB-231 breast): 3.29 µM
- GI50 (MDA-MB-435): 1.3 µM
- TGI (MDA-MB-435): 4.21 µM
- GI50 (MOLT-4 leukemia): 0.569 µM
- TGI (MOLT-4 leukemia): 8.21 µM
- GI50 (NCI-H226 lung): 1.7 µM
- TGI (NCI-H226 lung): 4.14 µM
- GI50 (NCI-H23 lung): 0.34 µM
- TGI (NCI-H23 lung): 3.59 µM
- GI50 (NCI-H460 lung): 1.03 µM
- TGI (NCI-H460 lung): 8.06 µM
- GI50 (NCI-H522 lung): 0.283 µM
- TGI (NCI-H522 lung): 2.59 µM
- GI50 (NCI/ADR-RES ovarian): 0.621 µM
- TGI (NCI/ADR-RES ovarian): 5.11 µM
- GI50 (OVCAR-3 ovarian): 0.541 µM
- TGI (OVCAR-3 ovarian): 2.09 µM
- GI50 (OVCAR-5 ovarian): 0.901 µM
- TGI (OVCAR-5 ovarian): 2.99 µM
- GI50 (OVCAR-8 ovarian): 0.458 µM
- TGI (OVCAR-8 ovarian): 24.7 µM
- GI50 (PC-3 prostate): 0.207 µM
- TGI (PC-3 prostate): 1.9 µM
- GI50 (RPMI-8226 leukemia): 0.221 µM
- TGI (RPMI-8226 leukemia): 0.691 µM
- GI50 (RXF 393 renal): 0.594 µM
- TGI (RXF 393 renal): 1.98 µM
- GI50 (SF-268 CNS): 2.82 µM
- TGI (SF-268 CNS): 12.7 µM
- GI50 (SF-295 CNS): 1.18 µM
- TGI (SF-295 CNS): 3.18 µM
- GI50 (SF-539 CNS): 0.421 µM
- TGI (SF-539 CNS): 1.67 µM
- GI50 (SK-MEL-2 melanoma): 2.29 µM
- TGI (SK-MEL-2 melanoma): 6.64 µM
- GI50 (SK-MEL-28 melanoma): 1.38 µM
- TGI (SK-MEL-28 melanoma): 3.16 µM
- GI50 (SK-MEL-5 melanoma): 1.23 µM
- TGI (SK-MEL-5 melanoma): 2.58 µM
- GI50 (SK-OV-3 ovarian): 2.77 µM
- TGI (SK-OV-3 ovarian): 8.04 µM
- GI50 (SN12C renal): 1.04 µM
- TGI (SN12C renal): 3.91 µM
- GI50 (SNB-19 CNS): 1.09 µM
- TGI (SNB-19 CNS): 4.69 µM
- GI50 (SNB-75 CNS): 1.3 µM
- TGI (SNB-75 CNS): 4.28 µM
- GI50 (SR leukemia): 0.132 µM
- GI50 (SW-620 colon): 0.386 µM
- TGI (SW-620 colon): 2.16 µM
- GI50 (T-47D breast): 0.368 µM
- TGI (T-47D breast): 2.67 µM
- GI50 (TK-10 renal): 0.473 µM
- TGI (TK-10 renal): 8.48 µM
- GI50 (U251 CNS): 0.389 µM
- TGI (U251 CNS): 2.25 µM
- GI50 (UACC-257 melanoma): 2.04 µM
- TGI (UACC-257 melanoma): 5.86 µM
- GI50 (UACC-62 melanoma): 0.54 µM
- TGI (UACC-62 melanoma): 2.07 µM
- GI50 (UO-31 renal): 0.43 µM
- TGI (UO-31 renal): 1.68 µM
